Experimental data as given in article PMC11997059, “Drugit: crowd-sourcing molecular design of non-peptidic VHL binders” (Nature Communications, 2025).
Values after ≈ are worked out from the molar mass of the structure shown. Like-named read-outs stand apart in the source and are kept apart here.

How the values were obtained:
[1] = Solubility testing (aqueous, LCUV); format: physicochemical; conditions: aqueous buffer, kinetic from dmso stock, pH 6.8, final concentration 125 µg/mL
Description: Dilution into a 1:1 mixture of acetonitrile and water was used as a reference. After 24 h, the incubations were filtrated, and the filtrate was analyzed by LCUV.

[2] = Bidirectional permeability in Caco2 cells; format: in vitro ADME; conditions: human, Caco-2, 1 or 10 µM, pH 7.4; for Papp A→B: apical to basolateral
Description: Bidirectional permeability of test compounds across a Caco2 cell monolayer was measured as described previously. […] Cells were incubated with the compounds for up to 2 h, and samples from the opposite (receiver) compartment were taken at different time points.

VHL = conditions: read-out: TR-FRET IC50 (value marked *: FP assay), ref as reported previously; cited from earlier work
[3] = target: VCB (VHL-ElonginC-ElonginB) complex (Homo sapiens, UniProt P40337); test: TR-FRET VCB—VHL tracer binding assay
[4] = target: 13C-methyl labeled VCB complex (Homo sapiens, UniProt P40337); test: Protein-observed NMR titration / hit validation; conditions: for induced CSPs, Val and Leu region (binding region): 200 µM 13C labeled VCB, 500 µM VH298 or reference molecule 2, 1000 µM of 1
[5] = NMR detected solubility in NMR buffer; format: physicochemical; conditions: 500 µM target, 20 mM TRIS, 100 mM NaCl, pH 7.5 in D2O, 1H NMR vs maleic acid
[6] = read-out: TR-FRET IC50, Cy5-labeled VHL tracer, 10 nM His-tagged VCB, mean ± s.d., 1 as diastereomeric mixture

Sequence of VCB (VHL-ElonginC-ElonginB) complex (P40337 54-213): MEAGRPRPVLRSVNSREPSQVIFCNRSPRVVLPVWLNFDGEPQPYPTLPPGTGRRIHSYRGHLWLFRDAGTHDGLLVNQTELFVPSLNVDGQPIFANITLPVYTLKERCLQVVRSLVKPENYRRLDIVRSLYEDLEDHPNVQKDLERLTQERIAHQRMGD
Sequence of VCB (VHL-ElonginC-ElonginB) complex (Q15370 1-104 partner limits assumed): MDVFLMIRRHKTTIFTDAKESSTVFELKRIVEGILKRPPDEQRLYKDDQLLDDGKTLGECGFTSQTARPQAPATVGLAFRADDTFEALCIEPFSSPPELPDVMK
Sequence of VCB (VHL-ElonginC-ElonginB) complex (Q15369 17-112 partner limits assumed): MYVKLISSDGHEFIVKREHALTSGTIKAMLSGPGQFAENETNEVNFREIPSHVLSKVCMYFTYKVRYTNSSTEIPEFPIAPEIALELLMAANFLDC
Sequence of 13C-methyl labeled VCB complex (P40337 54-213): as the sequence (P40337 54-213) above
Sequence of 13C-methyl labeled VCB complex (Q15370 1-104 partner limits assumed): as the sequence (Q15370 1-104 partner limits assumed) above
Sequence of 13C-methyl labeled VCB complex (Q15369 17-112 partner limits assumed): as the sequence (Q15369 17-112 partner limits assumed) above

IC50 [3, 6] [µM]	solubility [5] [µM]	SMILES	other results
		Cc1ncsc1-c1ccc(CNC(=O)[C@@H]2C[C@@H](O)CN2C(=O)[C@@H](NC(=O)C2(F)CC2)C(C)(C)C)cc1 [Reference molecule 1]	solubility at 24 h [1]: > 115 µg/mL; Papp A→B [2]: 2.9 ×10⁻⁶ cm/s; IC50 (VHL): […]
132 ± 38		Cc1cc(CC(=O)N2C[C@H](O)C[C@H]2C(=O)NCc2ccc(Cl)cc2)on1 [Reference molecule 2]	solubility at 24 h [1]: > 88 µg/mL; efflux ratio [2]: 4.8; induced CSPs, Val and Leu region (binding region) [4]: interact with the same binding region; Kd ([4]; read-out: NMR KD, fit of dose-dependent chemical shifts of peaks #1 and #2, two independent titrations): 29 ± 1 µM
		Cc1ncsc1-c1ccc(CNC(=O)[C@@H]2C[C@@H](O)CN2C(=O)[C@@H](NC(=O)C2(C#N)CC2)C(C)(C)C)cc1 [VH298, (2S,4R)-1-((S)-2-(1-Cyanocyclopropanecarboxamido)−3,3-dimethylbutanoyl)-4-hydroxy-N-(4-(4-methylthiazol-5-yl)benzyl)pyrrolidine-2-carboxamide]	induced CSPs, Val and Leu region (binding region) [4]: interact with the same binding region
		Cc1ncsc1-c1ccc(CNC(=O)C2CC(O)CN(c3ccccn3)C2=O)cc1 (centres unmarked) [compound 1]	solubility ([5]; NMR buffer, aqueous buffer): > 500 µM; solubility at 24 h [1]: > 98 µg/mL; Papp A→B [2]: 23 ×10⁻⁶ cm/s; IC50 [3]: 264 ± 30 µM; Kd [4]: 182 ± 76 µM; induced CSPs, Val and Leu region (binding region) [4]: interact with the same binding region
> 100	20.0 (≈ 7.2 µg/mL)	Cc1ncsc1-c1ccc(CNC(=O)c2cc(=O)cc(Cl)[nH]2)cc1 [compound 2]	
13.8 ± 1.8	280.0 (≈ 112 µg/mL)	Cc1ncsc1-c1ccc(CNC(=O)c2cc(=O)cc(-c3ccccc3)[nH]2)cc1 [compound 3]	
> 100		Cc1ncsc1-c1ccc(CNC(=O)c2c[nH]cc(Br)c2=O)cc1 [compound 4]	solubility ([5]; NMR buffer, aqueous buffer): 40 µM (≈ 16.2 µg/mL)
> 100	20.0 (≈ 8.03 µg/mL)	Cc1ncsc1-c1ccc(CNC(=O)c2c[nH]cc(-c3ccccc3)c2=O)cc1 [compound 5]	
> 500	70.0 (≈ 30.1 µg/mL)	Cc1ncsc1-c1ccc(CNCc2cc(CO)nc(N(C)c3ccccc3)c2)cc1 [compound 6]	
106 ± 5.2	60.0 (≈ 27.6 µg/mL)	Cc1ncsc1-c1ccc(CN(Cc2cc(Cl)nc(CO)c2)C(=O)OC(C)(C)C)cc1 [compound 7]	
> 500	430.0 (≈ 99.5 µg/mL)	CN(CCNCc1ccccc1)c1cnn[nH]1 [compound 8]	
		Cc1ncsc1-c1ccc(CNc2cc(CO)cc3c2cnn3C)cc1 [compound 9]	solubility ([5]; NMR buffer, aqueous buffer): 110 µM (≈ 40.1 µg/mL); IC50 [3]: > 100 µM
		Cc1ncsc1-c1ccc(CNc2cc(CO)cc3nn(C)cc23)cc1 [compound 10]	solubility ([5]; NMR buffer, aqueous buffer): 240 µM (≈ 87.5 µg/mL); IC50 [3]: 167 ± 47 µM
> 500	180.0 (≈ 68.1 µg/mL)	Cc1ncsc1-c1ccc(C(=O)Nc2cc(CO)cc3c2cnn3C)cc1 [compound 11]	
255 ± 45	70.0 (≈ 26.5 µg/mL)	Cc1ncsc1-c1ccc(C(=O)Nc2cc(CO)cc3nn(C)cc23)cc1 [compound 12]	
> 100	20.0 (≈ 8.07 µg/mL)	Cc1ncsc1-c1ccc(CNC(=O)c2cc(O)cc(Br)c2)cc1 [compound 13]	
15.6 ± 1.2	< 10.0	Cc1ncsc1-c1ccc(CNC(=O)c2cc(O)cc(-c3ccccc3)c2)cc1 [compound 14]	
		Cc1ncsc1-c1ccc(-c2ccc3cccc(C(N)=O)c3c2)cc1 [compound 15]	solubility ([5]; NMR buffer, aqueous buffer): < 10 µM
8.8 ± 0.8	< 10.0	Cc1ncsc1-c1ccc(-c2ccc3nccc(C(N)=O)c3c2)cc1 [compound 16]	
313 ± 135	400.0 (≈ 151 µg/mL)	Cc1ncsc1-c1ccc(CNC(=O)[C@@H]2C[C@@H](O)Cc3ccccc32)cc1 [compound 17]	
166 ± 77	> 500.0	Cc1ncsc1-c1ccc(CNC(=O)[C@H]2C[C@H](O)Cc3ccccc32)cc1 [compound 18]	

IC50 [3, 6] [µM]	solubility [5] [µM]	SMILES	other results
> 100	230.0 (≈ 94 µg/mL)	Cc1ncsc1-c1ccc(CNC(=O)C2CC(O)CN(c3ccccn3)C2)cc1 (centres unmarked) [compound 19]	
		O=C(Cc1ccc2cc(O)ccc2c1)Nc1cc[nH]n1 [compound 22]	solubility ([5]; NMR buffer, aqueous buffer): 350 µM (≈ 93.6 µg/mL); IC50 [3]: 315 ± 44 µM
> 100	110.0 (≈ 44.7 µg/mL)	Cc1ncsc1-c1ccc(CNC(=O)C2CC(O)CC(c3ccccc3)C2)cc1 (centres unmarked) [compound 23]	
		Cc1ncsc1-c1ccc(CNC(=O)[C@@H]2C[C@@H](O)C[C@H](c3ccccc3)C2)cc1 [compound 24]	solubility ([5]; NMR buffer, aqueous buffer): < 10 µM; IC50 [3]: > 100 µM
		Cc1ncsc1-c1ccc(CNC(=O)[C@H]2C[C@H](O)C[C@@H](c3ccccc3)C2)cc1 [compound 25]	solubility ([5]; NMR buffer, aqueous buffer): < 10 µM; IC50 [3]: > 100 µM
		O=S1(=O)Cc2ccccc2-c2[nH]ncc21 [compound 26]	solubility ([5]; NMR buffer, aqueous buffer): > 500 µM; IC50 [3]: 265 ± 74 µM
> 500	> 500.0	O=S1(=O)Cc2ccccc2-c2[nH]nc(Br)c21 [compound 27]	
244 ± 22	360.0 (≈ 117 µg/mL)	O=S1(=O)Cc2ccccc2-c2[nH]nc(NCc3ccccc3)c21 [compound 28]	
175 ± 18		O=[N+]([O-])c1ccc2c(c1)CS(=O)(=O)c1cn[nH]c1-2 [compound 29]	
		Cc1ncsc1-c1ccc(CNc2cc(C(C)C)c[nH]c2=O)cc1 [compound 33]	solubility ([5]; NMR buffer, aqueous buffer): 50 µM (≈ 17 µg/mL); IC50 [3]: 71.7 ± 49.3 µM
> 100	20.0 (≈ 8.09 µg/mL)	Cc1ncsc1-c1ccc(CNC(=O)c2cc(Br)c[nH]c2=O)cc1 [compound 34]	
	< 10.0	Cc1ncsc1-c1ccc(CNC(=O)c2cc(-c3ccccc3)c[nH]c2=O)cc1 [compound 35]	
13 ± 4.5	< 10.0	Cc1ncsc1-c1ccc(CC(=O)Nc2c[nH]c3ccccc23)cc1 [compound 36]	
> 100	< 10.0	Cc1ncsc1-c1ccc(CNC(=O)Cc2ccc(-c3ccccc3)cc2CO)cc1 [compound 37]	
85.7 ± 16.2	80.0 (≈ 31.1 µg/mL)	Cc1ncsc1-c1ccc(CNCc2cc(O)cc(Br)c2)cc1 [compound 38]	
70.7 ± 0.4	< 10.0	Cc1ncsc1-c1ccc(CN(Cc2cc(O)cc(Br)c2)C(=O)OC(C)(C)C)cc1 [compound 39]	
		Cc1ncsc1-c1ccc(CNCc2cc(O)cc(N(C)c3ccccc3)c2)cc1 [compound 40]	solubility ([5]; NMR buffer, aqueous buffer): < 10 µM; IC50 [3]: 67.8 ± 5.1 µM
> 100	< 10.0	Cc1ncsc1-c1ccc(CNC(=O)c2cc(Br)cc(=O)[nH]2)cc1 [compound 41]	
144 ± 10	> 500.0	Cc1ncsc1-c1ccc(CNC(=O)c2cc(C#N)cc(O)n2)cc1 [compound 42]	
> 500	> 500.0	NC(=O)c1cn[nH]c1-c1cccc2ccccc12 [compound 43]	
